Measured values taken from publication PMC5823406, “Vehicle development, pharmacokinetics and toxicity of the anti-invasive agent 4-fluoro-3’,4’,5’-trimethoxychalcone in rodents” (PLoS ONE, 2018).
“Also recorded” adds a separate entry of the source.

Legend:
[1] = Solubility in vehicles, visual determination; assay type: physicochemical
Experimental: C16 has low aqueous solubility, which limits the choice of preclinical formulations for in vivo studies. In this work, thirteen vehicles were evaluated for their applicability in single-dose studies (Table 1). For commonly used systems (entries a-e) visual determination of solubility was conducted, while for the more complex systems solubility was assessed by laser nephelometry.

[2] = Metabolite profiling in whole blood; assay type: in vitro ADME; settings: rat whole blood
Experimental: C. Stability and metabolism
For details on ADME experiments not included underneath , please consult ref. [1].
C.A. Whole blood stability
Column: Kinetex XB-C18 column, 2.6 µm (150 x2.1 mm)
Mobile phase A: H2O + 0.1% v/v Formic Acid
Mobile phase B: MeCN + 0.1% v/v Formic Acid
Autosampler syringe volume: 100 µL
Weak wash: MeOH:H2O 1:9 v/v
Strong wash: MeOH:H2O 95:5 v/v
Table K. Gradient program.
Mass spectrometric conditions
Model: AB Sciex API5500 QTrap
Mode: Multiple ion monitoring (MIM)
Table L. MIM (parent to parent transitions).
The areas and percentages for the parent and metabolites have been calculated using MIM data where parent to parent transitions have been used, and assume that each metabolite has the same point of ionisation and the sensitivity of the metabolite has not been affected by the biotransformation.

[3] = system: ICR mice; experiment: Single-dose IP MTD study; assay type: in vivo; settings: for Necropsy: gross findings: 24 h post dosing; for Weigt decrease (%): over 24 h
Experimental: Male ICR mice (20–26 g), were obtained from BioLASCO Taiwan. Animals were kept in conventional cages with wood chip bedding. Space allocation for 3–5 animals was 30 x 19 x 13 cm. All animals were healthy at the start of the trial and maintained in a well-controlled temperature (20–24°C) and humidity (30%-70%) environment with 12 h light/dark cycles. Free access to a standard lab diet [MFG (Oriental Yeast Co., Ltd., Japan)] and autoclaved tap water were granted.
A single PO and IP dose progression test was conducted in which animals were dosed at a minimum of 72- or 24-h intervals, respectively. C16 (vehicle: 10% Solutol HS-15 / 90% PEG 600) was administered by oral gavage at 10 mL/kg to randomly assigned groups of 2 male and 2 female mice, or by IP injection at 5 mL/kg to randomly assigned groups of 5 male mice. Animals received an initial dose of 10 mg/kg. If 50% of the animals survived for 72 h (PO) or 30 min (IP), the dose for the next cohort was increased. If one or more animals died, the dose for the next cohort was decreased. The next dose level was determined by the decision scheme in Fig 2.
Body weights were recorded before dosing and at the 72- (PO) or 24-h (IP) time point. Gross necropsy was performed in all animals without tissue collection.
C16 was administered IP at an initial dose of 10 mg/kg to a group of 5 ICR derived male mice weighing 22±2 g. The animals were then observed for presence of acute toxic symptoms and autonomic effects during the first 30 min and after 1 h, 2 h, 6 h and 24 h (Table S-Table U). The next dose level was determined based on whether more than 50% animals died within 30 min after dosing. Gross necropsy was performed in all animals without tissue collection .
Table S. Body weights, evolution over 24 h, IP MTD study.
Compound Dose Animal Body weight (g)
Table T. Food consumption over 24 h, IP MTD study.
Compound Dose Animal Food consumption (g)

**Q.** What does the source list for `COc1cc(C(=O)/C=C/c2ccc(F)cc2)cc(OC)c1OC` [C16, 4-fluoro-3’,4’,5’-trimethoxychalcone]?
**A.** Solubility of C16 in vehicle: Result ([1]; 10% (DMSO / Cremophor EL 1:1) / 90% Milli-Q water, 2 mg/mL): Insoluble ^a; Solubility of C16 in vehicle: Result ([1]; 10% DMSO in normal saline, 1 mg/mL): Insoluble ^a; Solubility of C16 in vehicle: Result ([1]; 20% DMSO / 10% (DMSO / Cremophor EL 1:1) / 70% Milli-Q water, 2 mg/mL): Soluble ^a; Solubility of C16 in vehicle: Result ([1]; 50% DMSO in normal saline, 1 mg/mL): Insoluble ^a; Solubility of C16 in vehicle: Result ([1]; DMSO, 10 mg/mL): highly soluble; also recorded: Soluble ^a; Area in sample (%) ([2]; 0 min control): 62.4%; Area in sample (%) ([2]; 15 min sample): 52.2%; Deaths ([3]; IP 10 mg/kg): 0/5; Necropsy: gross findings ([3]; IP 10 mg/kg): none; Autonomic: Hunch back ([3]; IP 10 mg/kg, first 30 min): 3/5; Autonomic: Low body temperature ([3]; IP 10 mg/kg, first 30 min): 0/5; Behavioral: Irritability: vocalization ([3]; IP 10 mg/kg, first 30 min): 0/5; Behavioral: Pinna ([3]; IP 10 mg/kg, first 30 min): 0/5; Neurologic: Low limb post ([3]; IP 10 mg/kg, first 30 min): 0/5; Neurologic: Tremor: twitches ([3]; IP 10 mg/kg, first 30 min): 2/5; Weigt decrease (%) ([3]; IP 10 mg/kg): 2.4%; Deaths ([3]; IP 30 mg/kg): 0/5; Necropsy: gross findings ([3]; IP 30 mg/kg): none; Autonomic: Hunch back ([3]; IP 30 mg/kg, first 30 min): 5/5; Autonomic: Low body temperature ([3]; IP 30 mg/kg, first 30 min): 0/5; Neurologic: Tremor: twitches ([3]; IP 30 mg/kg, first 30 min): 2/5; Weigt decrease (%) ([3]; IP 30 mg/kg): 4.8%; Deaths ([3]; IP 50 mg/kg): 0/5; Necropsy: gross findings ([3]; IP 50 mg/kg): none; Autonomic: Hunch back ([3]; IP 50 mg/kg, first 30 min): 5/5; Neurologic: Tremor: twitches ([3]; IP 50 mg/kg, first 30 min): 3/5; Weigt decrease (%) ([3]; IP 50 mg/kg): 8.7%; tolerated dose, single-dose IP administration ([3]; male, ICR, mouse, in vivo, ip, 24 h): up to 50 mg/kg
